Here are results for five substances from paper PMC10447463, “Data-mining unveils structure–property–activity correlation of viral infectivity enhancing self-assembling peptides” (Nature Communications, 2023).

Like-named read-outs stand apart in the source and are kept apart here.

The subject of data set [1] is HIV-1 infection of TZM-bl cells. Description: HIV-1 infectivity enhancement assay, β-galactosidase luminescence. The settings on record: for Rel-EFC: infection relative to EF-C (QCKIKQIINMWQ = 1); for Log10 Infection Rel EFC: log10 of infection relative to EF-C; for Log Infectivity: Fig. S7 panel A (plotted against β-sheet content), Log10 infection relative to EF-C, asymmetric std dev errors; for Log Infectivity / Abs. Inf.: TZM-bl cells; for Log10 Infection Rel EF-C: HIV-1 infection of TZM-bl cells; for Log10 of Rel to EFC (Feb2021): Log10 of infection relative to EF-C, all peptides of FigS16; for Abs. Inf.: absolute HIV-1 infection signal, β-galactosidase luminescence. Format: cell-based.

The format of data set [2] is physicochemical. The settings on record: for ThT Cat. / ThT-Fluorescence (categorical): ThT-active if fluorescence at least twice the control. The essentials: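 Preformed peptide fibrils (1 mg/mL) mixed with 50 µM ThT in PBS, 15 min at RT, fluorescence ex 440/em 488 nm versus PBS blank, triplicates. Zeta potential: peptides at 1 mg/mL in PBS pH 7.4, aged 1 d at RT, diluted in 1 mM KCl, Smoluchowski from electrophoretic mobility.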

[3] abbreviates: Log10 of infection rate relative to EF-C, Figure 3A source data.
Setting [4] is: infection rate relative to EF-C, log10, data of Figure 2D.
[5] abbreviates: infection rate relative to EF-C, log10, source data of Figure 2C.
[6] abbreviates: ThT fluorescence category, 1 if Rel. ThT >2.

KFKFEFEF: the Rel-EFC in data set [1] (1.3 µM peptide) is 0,03. Also, in data set [1] (1.3 µM peptide), the “Log10 Infection Rel EFC” value was -1,55. Also, the “Log Infectivity” value in data set [1] was -1.547. The “Log10 Infection Rel EF-C” value in data set [1] (setting [3]) was -1.55; in data set [1] (setting [4]) it was -1.547; in data set [1] (setting [5]), -1.547. Also, the “Tht category (> 2 to blank = +)” value in data set [2] (Fig S10 panel D) is recorded as 1 (ThT. Cat is 1, if Rel. ThT >2); in data set [2] (FigS12 panel A) it was 1 (ThT. Cat is 1, if Rel. ThT >2). Moreover, the “ThT Cat,” value in data set [2] (FigS12 panel B) is 1 (ThT. Cat is 1, if Rel. ThT >2); in data set [2] (ThT category, 1 if Rel. ThT >2), 1 (ThT. Cat is 1, if Rel. ThT >2). Moreover, the “ThT Cat.” value in data set [2] (setting [6]) is 1 (ThT. Cat is 1, if Rel. ThT >2). Also, the “ThT Cat. / ThT-Fluorescence (categorical)” value (shortened to “ThT Cat. / ThT-Fluorescence”) in data set [2] is 1 (ThT. Cat is 1, if Rel. ThT >2).
In the case of RGDCKIKIQINM, in data set [1] (1.3 µM peptide), the Rel-EFC is listed as 0,24. Further, in data set [1] (1.3 µM peptide), the “Log10 Infection Rel EFC” value was -0,63. Further, the “Log Infectivity” value in data set [1] is given as -0.6272. The “Log10 Infection Rel EF-C” value in data set [1] (setting [3]) is listed as -0.63; in data set [1] (setting [4]), -0.6272; in data set [1] (setting [5]), -0.6272. For the same substance, in data set [1], the “Log10 of Rel to EFC (Feb2021)” value was -0.63. Besides, the “Tht category (> 2 to blank = +)” value in data set [2] (Fig S10 panel D) is 0 (ThT-inactive (N-Fold <2)). Besides, in data set [2] (ThT category, 1 if Rel. ThT >2), the “ThT Cat,” value is 0 (ThT-inactive (N-Fold <2)). In data set [2] (setting [6]), the “ThT Cat.” value was 0 (ThT-inactive (N-Fold <2)). In data set [2], the “ThT Cat. / ThT-Fluorescence” value was 0 (ThT-inactive (N-Fold <2)).
As for KIKIQIW, in data set [1] (1.3 µM peptide), the Rel-EFC is listed as 0,14 and the “Log10 Infection Rel EFC” value was -0,85. Besides, in data set [1], the “Log Infectivity” value is listed as -0.8533, the “Log10 of Rel to EFC (Feb2021)” value is -0.85 and the “Abs. Inf.” value worked out at 4280. Besides, in data set [1] (setting [3]), the “Log10 Infection Rel EF-C” value is -0.85. Also, the “Log10 Infection Rel EF-C” value in data set [1] (setting [4]) is on record as -0.8533. The “Log10 Infection Rel EF-C” value in data set [1] (setting [5]) was -0.8533. Also, the “Tht category (> 2 to blank = +)” value in data set [2] (Fig S10 panel D) was 1 (ThT. Cat is 1, if Rel. ThT >2). In addition, in data set [2] (ThT category, 1 if Rel. ThT >2), the “ThT Cat,” value is on record as 1 (ThT. Cat is 1, if Rel. ThT >2) and the “ThT Cat.” value is listed as 1 (ThT. Cat is 1, if Rel. ThT >2). Further, in data set [2], the “ThT Cat. / ThT-Fluorescence” value is recorded as 1 (ThT. Cat is 1, if Rel. ThT >2).
KAKAQANM: the Rel-EFC in data set [1] (1.3 µM peptide) was 0,01. For the same substance, the “Log10 Infection Rel EFC” value in data set [1] (1.3 µM peptide) is listed as -2,05. The “Log Infectivity” value in data set [1] was -2.046. The “Log10 Infection Rel EF-C” value in data set [1] (setting [3]) was -2.05; in data set [1] (setting [4]), -2.046; in data set [1] (setting [5]), -2.046. Moreover, the “Inf. rel. EF-C” value in data set [1] (HIV-1 infection relative to EF-C, Fig 23 plot, panels A and B, mean of 3 values) worked out at 0.02204; in data set [1] (HIV-1 infection relative to EF-C, Fig 23 plot, single data point, replicate 1), 0.03965; in data set [1] (HIV-1 infection relative to EF-C, Fig 23 plot, single data point, replicate 2) it was 0.008224; in data set [1] (HIV-1 infection relative to EF-C, Fig 23 plot, single data point, replicate 3) it was 0.01824; in data set [1] (n-fold infection vs virus only, relative to that of EF-C, 1.3 µM peptide), 0.01. Also, the “Abs. Inf. / RLU s-1” value in data set [1] (absolute infection rate, peptide 1.3 µM on cells, virus preincubated 10 min with fibrils, read 3 days post infection, mean of triplicate) worked out at 497 RLU s-1. In addition, the “Tht category (> 2 to blank = +)” value in data set [2] (Fig S10 panel D) and in data set [2] (FigS12 panel A) was 0 (ThT-inactive (N-Fold <2)) throughout. Moreover, the “ThT Cat,” value was 0 (ThT-inactive (N-Fold <2)) in data set [2] (FigS12 panel B) and 0 (ThT-inactive (N-Fold <2)) in data set [2] (ThT category, 1 if Rel. ThT >2). In data set [2] (setting [6]), the “ThT Cat.” value was 0 (ThT-inactive (N-Fold <2)). Besides, in data set [2], the “ThT Cat. / ThT-Fluorescence” value is 0 (ThT-inactive (N-Fold <2)). Moreover, the “Rel. ThT” value in data set [2] (n-fold ThT fluorescence vs control (PBS, 10% DMSO), 4 µL 1 mg/mL fibrils + 20 µL 50 µM ThT, 15 min RT, ex 440 / em 488 nm, triplicate) came to 1.1.
As for IKVAVKIKIQINM, in data set [1] (1.3 µM peptide), the Rel-EFC is on record as 0,5 and the “Log10 Infection Rel EFC” value is -0,3. Also, in data set [1], the “Log Infectivity” value is -0.3046, the “Log10 of Rel to EFC (Feb2021)” value was -0.3 and the “Abs. Inf.” value stood at 17920. The “Log10 Infection Rel EF-C” value in data set [1] (setting [3]) is reported as -0.3. The “Log10 Infection Rel EF-C” value in data set [1] (setting [4]) is -0.3046. For the same substance, the “Log10 Infection Rel EF-C” value in data set [1] (setting [5]) was -0.3046. Also, the “Tht category (> 2 to blank = +)” value in data set [2] (Fig S10 panel D) is 0 (ThT-inactive (N-Fold <2)). Moreover, in data set [2] (ThT category, 1 if Rel. ThT >2), the “ThT Cat,” value is 0 (ThT-inactive (N-Fold <2)) and the “ThT Cat.” value was 0 (ThT-inactive (N-Fold <2)). Besides, the “ThT Cat. / ThT-Fluorescence” value in data set [2] is 0 (ThT-inactive (N-Fold <2)).
